The values below come from patent US10640545B2 (THE GOVERNORS OF THE UNIVERSITY OF ALBERTA, priority 2017, dated 2020).

In series [1] the target is T1, wild-type rat apelin receptor (Rattus norvegicus, UniProt Q9JHG3).
T1 construct: expressed in transfected cells
T1 sequence (Q9JHG3 1-377): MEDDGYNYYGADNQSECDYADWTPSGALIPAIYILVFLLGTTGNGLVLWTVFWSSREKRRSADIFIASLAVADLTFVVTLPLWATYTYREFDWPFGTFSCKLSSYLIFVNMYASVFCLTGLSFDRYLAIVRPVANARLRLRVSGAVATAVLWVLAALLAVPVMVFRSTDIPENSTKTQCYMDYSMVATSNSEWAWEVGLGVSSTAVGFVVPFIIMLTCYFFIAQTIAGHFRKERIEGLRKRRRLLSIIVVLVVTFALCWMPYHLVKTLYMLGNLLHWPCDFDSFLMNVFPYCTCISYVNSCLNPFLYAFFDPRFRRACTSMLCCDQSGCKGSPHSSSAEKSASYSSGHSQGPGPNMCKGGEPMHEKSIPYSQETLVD
The series is described as follows: Radioligand binding, displacement of [125I]-pyr-1-apelin-13 on CHO cell membranes. The following applies: for Ki: displacement of [125I]-pyr-1-apelin-13 (0.2 nM), CHO membranes, rat apelin receptor-EGFP, means ± SE, read-out: Affinity Ki; for receptor binding affinity (in words): rat apelin receptor. How it is done: This experiment evaluated the ability of peptides of the present embodiments to bind to the wild-type rat apelin receptor, in order to examine the impact of synthetic modification within the critical RPRL motif of the apelin peptides.
Membrane preparations from CHO cells stably expressing the wild-type rat apelin receptor-EGFP were prepared as previously described (Gerbier et al., New Structural Insights Into The Apelin Receptor: Identification Of Key Residues For Apelin binding; FASEB J. 2015, 29, 314-322; Iturrioz et. al., Development Of Original Metabolically-Stable Apelin-17 Peptides With Diuretic And Cardiovascular Effects; FASEB J. 2017, 31, 687-700.) Crude membrane preparations (1 μg total mass of membranes/assay) were incubated for 3 h at 20° C. with 0.2 nM [^125I]-pyr-1-apelin-13 (monoiodinated on Lys^8 with Bolton-Hunter reagent, Perkin Elmer, Wellesley, Mass., USA) in binding buffer (50 mM HEPES, 5 mM MgCl2 1149 pH 7.5, BSA 1%) alone or in presence of the different compounds at various concentrations. The reaction was stopped by adding 4 mL of cold binding buffer, filtered on Whatman GF/C filters and washed with 5 mL of cold binding buffer. Radioactivity was then counted using a Wizard 1470 Wallac gamma counter (Perkin Elmer, Turku, Finland). Binding experiment data were analyzed with Graph Pad Prism.

Series [2] in a line: in vitro. The following applies: human, plasma.
Series [3] deals with anesthetized mice. The series is described as follows: Blood pressure assay in anesthetized mice. In kind it is in vivo. The following applies: 1.4 μM/kg body weight injected; for blood pressure lowering (hypotensive) effect: SBP, DBP, MABP. How it is done:
Synthetic peptides 8-19 were tested for blood pressure lowering abilities in anesthetized mice. Apelin peptides were injected through […], monitoring blood pressure (BP) and heart rate (HR) over 60 minutes.
Mice were anaesthetized with 1.5% isoflurane/oxygen, and body temperature was monitored and maintained at 36° C. by a heating pad. The aorta was cannulated via the right carotid artery using a PV loop catheter (Model 1.2F from Scisense, Transonic) in order to continuously record arterial blood pressure and heart rate (LabScribe 2.0, Scisense). […] Results are reported as systolic blood pressure (SBP), diastolic blood pressure (DBP), mean arterial blood pressure (MABP) and heart rate (HR).
Apelin peptides 11, 56-59 as well as the KLKB1-cleavage fragments 54 and 55 were tested for blood pressure lowering abilities in anesthetized mice.
Mice were anesthetized with 1.5% isoflurane/oxygen, and body temperature was monitored and maintained at 36° C. by a heating pad. The aorta was cannulated via the right carotid artery using a PV loop catheter (model 1.2F from Scisense, Transonic) in order to continuously record arterial blood pressure and heart rate (LabScribe 2.0, Scisense). Compounds 11, and 54-59 or 55-59 (1.4 μM/kg body weight) or the same volume of saline was injected via the right jugular vein. Results are reported as systolic blood pressure (SBP), diastolic blood pressure (DBP), mean arterial blood pressure (MABP), and heart rate (HR) shown in FIGS. 15A-D.
Apelin peptides were delivered systemically via the right internal jugular vein while blood pressure (BP) and heart rate (HR) were continuously monitored in the aorta cannulated via the right carotid artery. All N-terminally extended apelin peptides, except 58, show pronounced and time-stable blood pressure lowering effects (FIGS. 15a-d). […] This correlates with the results obtained from the Ca^2+ mobilization assay.

SMILES strings stand for the structures. “Also recorded” adds a separate entry of the source. Where a SMILES comes first, the peptide text is derived from it. [ ]: non-standard residue; d: D form. The star is where a group is joined. Phe(4-Br) = N[C@@H](Cc1ccc(Br)cc1)C(=O)O; Palmitoyl = CCCCCCCCCCCCCCCC(=O)*; αMeR = C[C@](N)(CCCNC(=N)N)C(=O)O; NMeL = CN[C@@H](CC(C)C)C(=O)O; pGlu = O=C1CC[C@@H](C(=O)O)N1; αMeL = CC(C)C[C@](C)(N)C(=O)O; Nle = CCCC[C@H](N)C(=O)O; Aib = CC(C)(N)C(=O)O

Regarding `CCCC[C@H](NC(=O)[C@@H]1CCCN1C(=O)CNC(=O)[C@H](CCCCN)NC(=O)[C@H](Cc1c[nH]cn1)NC(=O)[C@H](CO)NC(=O)[C@](C)(CC(C)C)NC(=O)[C@H](CCCNC(=N)N)NC(=O)[C@@H]1CCCN1C(=O)[C@H](CCCNC(=N)N)NC(=O)[C@@H]1CCC(=O)N1)C(=O)NC(C)(C)C(=O)N[C@@H](Cc1ccc(Br)cc1)C(=O)O` [Peptide 14, pGlu-Arg-Pro-Arg-αMeLeu-Ser-His-Lys-Gly-Pro-Nle-Aib-paraBrPhe] ([pGlu]RPR[αMeL]SHKGP[Nle][Aib][Phe(4-Br)]-OH; C-terminus assumed), in series [1], the inhibitory constant (Ki) was found to be 170 ± 50 pM and the “receptor binding affinity (in words)” value was “modest improvement in receptor binding”. In series [2], this molecule gave a share remaining at 0.5 h, 80 µM of 45 ± 6% and a fraction remaining at 1 h, 80 µM of 38 ± 3%. Besides, in series [3], the “effect on heart rate (HR)” value is “significant and pronounced effect of increasing the murine HR; also recorded: had an impact on the heart rate”; the “blood pressure lowering (hypotensive) effect” value (from here on “blood pressure lowering”) is “without inducing any vasoactive effects”.
As to `CCCC[C@H](NC(=O)[C@@H]1CCCN1C(=O)CNC(=O)[C@H](CCCCN)NC(=O)[C@H](Cc1c[nH]cn1)NC(=O)[C@H](CO)NC(=O)[C@H](CC(C)C)NC(=O)[C@H](CCCNC(=N)N)NC(=O)[C@@H]1CCCN1C(=O)[C@H](CCCNC(=N)N)NC(=O)[C@H](CCC(N)=O)NC(=O)[C@@H](N)CCCNC(=N)N)C(=O)NC(C)(C)C(=O)N[C@@H](Cc1ccc(Br)cc1)C(=O)O` [Peptide 54] (H-RQRPRLSHKGP[Nle][Aib][Phe(4-Br)]-OH; C-terminus assumed), in series [3], the “blood pressure lowering” value is “inactive or nearly so”.
Turning to `CCCC[C@H](NC(=O)[C@@H]1CCCN1C(=O)CNC(=O)[C@H](CCCCN)NC(=O)[C@H](Cc1c[nH]cn1)NC(=O)[C@H](CO)NC(=O)[C@H](CC(C)C)NC(=O)[C@](C)(CCCNC(=N)N)NC(=O)[C@@H]1CCCN1C(=O)[C@H](CCCNC(=N)N)NC(=O)[C@H](CCC(N)=O)NC(=O)[C@H](CCCNC(=N)N)NC(=O)[C@H](CCCNC(=N)N)NC(=O)[C@H](Cc1ccccc1)NC(=O)[C@@H](N)CCCCN)C(=O)NC(C)(C)C(=O)N[C@@H](Cc1ccc(Br)cc1)C(=O)O` [Peptide 13, Lys-Phe-Arg-Arg-Gln-Arg-Pro-αMeArg-Leu-Ser-His-Lys-Gly-Pro-Nle-Aib-paraBrPhe] (H-KFRRQRP[αMeR]LSHKGP[Nle][Aib][Phe(4-Br)]-OH; N-terminus and C-terminus assumed), in series [1], the Ki amounted to 130 ± 32 pM. In series [2], this molecule showed an amount remaining at 0.5 h, 80 µM of 61 ± 10% and an amount remaining at 1 h, 80 µM of 55 ± 4%. Also, in series [3], the “effect on heart rate (HR)” value is reported as “had an impact on the heart rate” and the “blood pressure lowering” value is “without inducing any vasoactive effects”.
With `CCCC[C@H](NC(=O)[C@@H]1CCCN1C(=O)CNC(=O)[C@H](CCCCN)NC(=O)[C@H](Cc1c[nH]cn1)NC(=O)[C@H](CO)NC(=O)[C@@H](CC(C)C)NC(=O)[C@H](CCCNC(=N)N)NC(=O)[C@@H]1CCCN1C(=O)[C@H](CCCNC(=N)N)NC(=O)[C@@H]1CCC(=O)N1)C(=O)NC(C)(C)C(=O)N[C@@H](Cc1ccc(Br)cc1)C(=O)O` [Peptide 8, pGlu-Arg-Pro-Arg-D-Leu-Ser-His-Lys-Gly-Pro-Nle-Aib-paraBrPhe] ([pGlu]RPR[dL]SHKGP[Nle][Aib][Phe(4-Br)]-OH; C-terminus assumed), in series [1], the inhibitory constant (Ki) was determined as 120 ± 35 pM and the “receptor binding affinity (in words)” value is reported as “modest improvement in receptor binding”. Moreover, in series [2], the amount remaining at 0.5 h, 80 µM came out at 32 ± 2% and the share remaining at 1 h, 80 µM stood at 22 ± 1%. The “blood pressure lowering” value in series [3] is reported as “no ability to decrease blood pressure; also recorded: inactivity”.
On to `CCCC[C@H](NC(=O)[C@@H]1CCCN1C(=O)CNC(=O)[C@H](CCCCN)NC(=O)[C@H](Cc1c[nH]cn1)NC(=O)[C@H](CO)NC(=O)[C@](C)(CC(C)C)NC(=O)[C@H](CCCNC(=N)N)NC(=O)[C@@H]1CCCN1C(=O)[C@H](CCCNC(=N)N)NC(=O)[C@H](CCC(N)=O)NC(=O)[C@H](CCCNC(=N)N)NC(=O)[C@H](CCCNC(=N)N)NC(=O)[C@H](Cc1ccccc1)NC(=O)[C@@H](N)CCCCN)C(=O)NC(C)(C)C(=O)N[C@@H](Cc1ccc(Br)cc1)C(=O)O` [Peptide 15] (H-KFRRQRPR[αMeL]SHKGP[Nle][Aib][Phe(4-Br)]-OH; N-terminus and C-terminus assumed), for which, in series [2], the fraction remaining at 0.5 h, 80 µM turned out to be 77 ± 4% and the share remaining at 1 h, 80 µM amounted to 48 ± 7%. In series [3], the “effect on heart rate (HR)” value is given as “had an impact on the heart rate” and the “blood pressure lowering” value is “without inducing any vasoactive effects”.
For the molecule `CCCCCCCCCCCCCCCC(=O)N[C@@H](CCCCN)C(=O)N[C@@H](Cc1ccccc1)C(=O)N[C@@H](CCCNC(=N)N)C(=O)N[C@@H](CCCNC(=N)N)C(=O)N[C@@H](CCC(N)=O)C(=O)N[C@@H](CCCNC(=N)N)C(=O)N1CCC[C@H]1C(=O)N[C@@H](CCCNC(=N)N)C(=O)N[C@@H](CC(C)C)C(=O)N[C@@H](CO)C(=O)N[C@@H](Cc1c[nH]cn1)C(=O)N[C@@H](CCCCN)C(=O)NCC(=O)N1CCC[C@H]1C(=O)N[C@@H](CCCC)C(=O)NC(C)(C)C(=O)N[C@@H](Cc1ccc(Br)cc1)C(=O)O` [Peptide 56] (Palmitoyl-KFRRQRPRLSHKGP[Nle][Aib][Phe(4-Br)]-OH; C-terminus assumed), the “blood pressure lowering” value in series [3] is “more potent than apelin-17 (2) and apelin-17A2 (5)”.
The same measure, in the same setting: with `CCCC[C@H](NC(=O)[C@@H]1CCCN1C(=O)CNC(=O)[C@H](CCCCN)NC(=O)[C@H](Cc1c[nH]cn1)NC(=O)[C@H](CO)NC(=O)[C@H](CC(C)C)N(C)C(=O)[C@H](CCCNC(=N)N)NC(=O)[C@@H]1CCCN1C(=O)[C@H](CCCNC(=N)N)NC(=O)[C@H](CCC(N)=O)NC(=O)[C@@H](N)CCCNC(=N)N)C(=O)NC(C)(C)C(=O)N[C@@H](Cc1ccc(Br)cc1)C(=O)O` [Peptide 55, Arg-Gln-Arg-Pro-Arg-NMeLeu-Ser-His-Lys-Gly-Pro-Nle-Aib-paraBrPhe] (H-RQRPR[NMeL]SHKGP[Nle][Aib][Phe(4-Br)]-OH; C-terminus assumed) the entry was “inactive or nearly so”.
With `CCCC[C@H](NC(=O)[C@@H]1CCCN1C(=O)CNC(=O)[C@H](CCCCN)NC(=O)[C@H](Cc1c[nH]cn1)NC(=O)[C@H](CO)NC(=O)[C@H](CC(C)C)NC(=O)[C@](C)(CCCNC(=N)N)NC(=O)[C@@H]1CCCN1C(=O)[C@H](CCCNC(=N)N)NC(=O)[C@@H]1CCC(=O)N1)C(=O)NC(C)(C)C(=O)N[C@@H](Cc1ccc(Br)cc1)C(=O)O` [Peptide 12, pGlu-Arg-Pro-αMeArg-Leu-Ser-His-Lys-Gly-Pro-Nle-Aib-paraBrPhe] ([pGlu]RP[αMeR]LSHKGP[Nle][Aib][Phe(4-Br)]-OH; C-terminus assumed), in series [1], the Ki is 560 ± 33 pM. Further, the “weaker affinity compared to 1, by a factor” value in series [1] (ratio of Ki to native 1) was 2. In series [2], this molecule came in with a share remaining at 1 h, 80 µM of 62 ± 6%.
